Reference: US5753615A, “Neuropeptides and their use as insecticides” (Queen Mary and Westfield College, priority 1993, dated 1998)
Non-standard residues stand in square brackets, D forms with d. No end group written: not given here. pGlu = O=C1CC[C@@H](C(=O)O)N1

Columns and labels:
[1] = system: corpora allata of the cockroach Diploptera punctata; assay type: cell-based
Experimental: Thus, it causes maximum inhibition of JH at a concentration of 1 nM, with a 50% inhibition (ED50) being achieved at 0.1 nM.

[2] = system: corpora allata of the cockroach Diploptera punctata; settings: given 'in comparison'; known allatostatins of the literature; test system not restated; cited from earlier work

| Substance | 50% inhibition (ED50) of JH production [1] | ED50 (inhibition of JH production), comparison values [2] |
| --- | --- | --- |
| GPPYDFGM-NH2 [Callatostatin 5, Gly-Pro-Pro-Tyr-Asp-Phe-Gly-Met-NH2] | 0.1 nM | – |
| [pGlu]VRFRQCYFNPISCF-OH (cysteine pairing not given here) [allatostatin of Manduca sexta] | – | 2 nM |
